For experiment [1], the target named is BRD4 (BD1+BD2) bromodomain (Homo sapiens (Human), UniProt O60885). The experiment in a line: BRD4 binding inhibition (AlphaScreen, GST-BRD4 vs tetraacetylated histone H4 peptide). Put shortly:
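AlphaScreen read after 30 min dark incubation at room temperature with glutathione acceptor/streptavidin donor beads (10 μg/ml each). The beads were added to compound plus 100 nM biotin-H4 (K5,8,12,16-acetyl) peptide and 100 nM GST-BRD4 BD1+BD2 in pH 7.4 HEPES/Tween/BSA/DTT buffer.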

Experiment [2] has as its system thymus cancer cells (Ty-82 cells). Description: Cytotoxicity to thymus cancer cells (Ty-82 cells), WST-1. To be noted: Homo sapiens, TY82, 72 h. For orientation: Tetrazolium assays rely on reduction of a dye to a coloured formazan, in cell work by metabolically active cells.
Procedure: The following experiment was performed to evaluate the cytotoxicity of [1,2,4]triazolo[4,3-a]quinoxaline derivative according to the present invention to thymus cancer cells (Ty-82 cells).
First, thymus cancer cells (Ty-82 cells) were distributed in a 96 well plate at the density of 2.5×10^4 cells/well. 24 hours later, the plated cells were treated with the compounds of the present invention dissolved in DMSO at the different concentrations ranging from 0.01 μM to 10 μM. 72 hours later, the activities of the compounds were determined using WST-1 reagent.
Experiment [3] has as its system acute myelogenous leukemia cells (MV-4-11 cells). The experiment in a line: Cytotoxicity to acute myelogenous leukemia cells (MV-4-11 cells), CCK-8. The settings on record: Homo sapiens, MV4-11, 72 h.
The mark [4] stands for this setting: GST-BRD4 (BD1+BD2) / biotinylated acetyl-histone H4 (Lys5,8,12,16) peptide, read-out: IC50, BRD4 binding inhibition.
Where [5] appears, read: GST-BRD4 (BD1+BD2) vs biotinylated acetyl-histone H4 peptide, AlphaScreen, read-out: BRD4 IC50.
Setting [6] is: read-out: Ty-82 Cytotoxicity IC50.
The mark [7] stands for this setting: read-out: MV-4-11 Cytotoxicity IC50.
Where [8] appears, read: read-out: IC50, cytotoxicity against thymus cancer cells.
Where [9] appears, read: read-out: IC50, cytotoxicity against acute myelogenous leukemia cells.

Like-named read-outs stand apart in the source and are kept apart here.

By IC50 is commonly meant the concentration at which inhibition is half-maximal. On to `COc1cc2nc(NCCCCNC(=O)NC3CCCCC3)c3nnc(C)n3c2cc1OC` [Example 93, 1-cyclohexyl-3-[4-(7,8-dimethoxy-1-methyl-[1,2,4]triazolo[4,3-a]quinoxaline-4-ylamino)-butyl]-urea], for which the concentration for half-maximal inhibition (IC50) is at most 50 nM in experiment [1] (setting [4]), 39 nM in experiment [1] (setting [5]), 560 nM in experiment [2] (setting [6]) and 340 nM in experiment [3] (setting [7]).

As for `COc1cc2nc(NCCCCNC(=O)c3ccccc3Cl)c3nnc(C)n3c2cc1OC` [Example 99, 2-chloro-N-[4-(7,8-dimethoxy-1-methyl-[1,2,4]triazolo[4,3-a]quinoxaline-4-ylamino)-butyl]-benzamide], the half-inhibitory concentration (IC50) in experiment [1] (setting [4]) was at most 50 nM; in experiment [1] (setting [5]), 21 nM; in experiment [2] (setting [6]), 550 nM; in experiment [3] (setting [7]), 230 nM.

For `COc1cc2nc(NCCCCNC(=O)c3cccc(Cl)c3Cl)c3nnc(C)n3c2cc1OC` [Example 102, 2,3-dichloro-N-[4-(7,8-dimethoxy-1-methyl-[1,2,4]triazolo[4,3-a]quinoxaline-4-ylamino)-butyl]-benzamide], the figures for the IC50 in experiment [1] (setting [4]), in experiment [2] (setting [6]) and in experiment [3] (setting [7]) were at most 50 nM, 840 nM and 360 nM, respectively.

For the compound `COc1cc2nc(NCCCCNC(=O)c3ccc(C)nc3Cl)c3nnc(C)n3c2cc1OC` [Example 108, 2-chloro-N-[4-(7,8-dimethoxy-1-methyl-[1,2,4]triazolo[4,3-a]quinoxaline-4-ylamino)-butyl]-6-methyl-nicotinamide], the IC50 in experiment [1] (setting [4]) was at most 50 nM; in experiment [1] (setting [5]), 17 nM; in experiment [2] (setting [8]), at most 500 nM; in experiment [2] (setting [6]), 370 nM; in experiment [3] (setting [7]), 510 nM.

Turning to `COc1c(C)ccc2c1nc(NCCCCNC(=O)CC(C)C)c1nnc(C)n12` [Example 135, N-[4-(6-methoxy-1,7-dimethyl-[1,2,4]triazolo[4,3-a]quinoxaline-4-ylamino)-butyl]-3-methyl-butyramide], the figures for the IC50 in experiment [1] (setting [5]), in experiment [2] (setting [6]) and in experiment [3] (setting [7]) were 61 nM, 730 nM and 360 nM, respectively.

Take `COc1cc(C)c2nc(NCCCCNC(=O)OC(C)C)c3nnc(C)n3c2c1` [Example 161, [4-(8-methoxy-1,6-dimethyl-[1,2,4]triazolo[4,3-a]quinoxaline-4-ylamino)-butyl]-carbamic acid isopropylester]: the IC50 in experiment [1] (setting [4]) was at most 10 nM; in experiment [2] (setting [6]), 810 nM; in experiment [3] (setting [9]) it was at most 200 nM; in experiment [3] (setting [7]), 80 nM.

Turning to `COCCOc1cc2nc(NCCCCNC(=O)OC(C)C)c3nnc(C)n3c2cc1OCCOC` [Example 165, {4-[7,8-bis-(2-methoxy-ethoxy)-1-methyl-[1,2,4]triazolo[4,3-a]quinoxaline-4-ylamino]-butyl}-carbamic acid isopropylester], the IC50 in experiment [1] (setting [4]) was at most 50 nM; in experiment [1] (setting [5]), 26 nM; in experiment [2] (setting [6]), 580 nM; in experiment [3] (setting [7]), 220 nM.

With `COCCOc1cc2nc(NCCCCNC(=O)CC(C)C)c3nnc(C)n3c2cc1OCCOC` [Example 166, N-{4-[7,8-bis-(2-methoxy-ethoxy)-1-methyl-[1,2,4]triazolo[4,3-a]quinoxaline-4-ylamino]-butyl}-3-methyl-butyramide], the IC50 in experiment [1] (setting [4]) was at most 50 nM; in experiment [1] (setting [5]), 20 nM; in experiment [2] (setting [6]) it was 580 nM; in experiment [3] (setting [9]), at most 200 nM; in experiment [3] (setting [7]), 70 nM.

With `COCCOc1cc2nc(NCCCCNC(=O)CC(C)(C)C)c3nnc(C)n3c2cc1OCCOC` [Example 167, N-{4-[7,8-bis-(2-methoxy-ethoxy)-1-methyl-[1,2,4]triazolo[4,3-a]quinoxaline-4-ylamino]-butyl}-3,3-dimethyl-butyramide], the IC50 in experiment [1] (setting [4]) was at most 50 nM; in experiment [1] (setting [5]) it was 40 nM; in experiment [2] (setting [6]), 880 nM; in experiment [3] (setting [7]), 510 nM.

With `COCCOc1cc2nc(NCCCCNC(=O)OCC(C)C)c3nnc(C)n3c2cc1OCCOC` [Example 168, {4-[7,8-bis-(2-methoxy-ethoxy)-1-methyl-[1,2,4]triazolo[4,3-a]quinoxaline-4-ylamino]-butyl}-carbamic acid isobutylester], the 50% inhibitory concentration (IC50) in experiment [1] (setting [4]) is at most 50 nM; in experiment [1] (setting [5]), 16 nM; in experiment [2] (setting [6]) it was 600 nM; in experiment [3] (setting [9]), at most 200 nM; in experiment [3] (setting [7]), 90 nM.

In the case of `Cc1nnc2c(NCCCCNC(=O)CC(C)C)nc3cc4c(cc3n12)OCCO4` [Example 181, 3-methyl-N-[4-(1-methyl-8,9-dihydro-7,10-dioxa-2,3,5,11b-tetraaza-cyclopenta[a]anthracene-4-ylamino)-butyl]-butyramide], the IC50 in experiment [1] (setting [4]) was at most 50 nM; in experiment [1] (setting [5]), 17 nM; in experiment [2] (setting [8]), at most 500 nM; in experiment [2] (setting [6]), 300 nM; in experiment [3] (setting [9]) it was at most 200 nM; in experiment [3] (setting [7]), 50 nM.

Take `Cc1nnc2c(NCCCCNC(=O)c3ccccc3)nc3cc4c(cc3n12)OCCO4` [Example 186, N-[4-(1-methyl-8,9-dihydro-7,10-dioxa-2,3,5,11b-tetraaza-cyclopenta[a]anthracene-4-ylamino)-butyl]-benzamide]: the 50% inhibitory concentration (IC50) in experiment [1] (setting [4]) was at most 50 nM; in experiment [1] (setting [5]), 22 nM; in experiment [2] (setting [8]), at most 500 nM; in experiment [2] (setting [6]) it was 340 nM; in experiment [3] (setting [7]) it was 680 nM.

Consider `Cc1nnc2c(NCCCCNC(=O)OC3CCCC3)nc3cc4c(cc3n12)OCCO4` [Example 190, [4-(1-methyl-8,9-dihydro-7,10-dioxa-2,3,5,11b-tetraaza-cyclopenta[a]anthracene-4-ylamino)-butyl]-carbamic acid cyclopentylester], for which the concentration for half-maximal inhibition (IC50) was at most 50 nM in experiment [1] (setting [4]); 28 nM in experiment [1] (setting [5]); 650 nM in experiment [2] (setting [6]); at most 200 nM in experiment [3] (setting [9]); 90 nM in experiment [3] (setting [7]).

Turning to `Cc1nnc2c(NCCCCNC(=O)Oc3ccccc3)nc3cc4c(cc3n12)OCCO4` [Example 191, [4-(1-methyl-8,9-dihydro-7,10-dioxa-2,3,5,11b-tetraaza-cyclopenta[a]anthracene-4-ylamino)-butyl]-carbamic acid phenylester], the half-inhibitory concentration (IC50) in experiment [1] (setting [5]) is 10 nM; in experiment [1] (IC50, BRD4 binding inhibition, GST-BRD4 (BD1+BD2) / biotinylated acetyl-histone H4 (Lys5,8,12,16) peptide), at most 10 nM; in experiment [2] (setting [8]), at most 500 nM; in experiment [2] (setting [6]), 310 nM; in experiment [3] (setting [9]) it was at most 200 nM; in experiment [3] (setting [7]), 90 nM.

On to `Cc1nnc2c(NCCCCNC(=O)NC(C)C)nc3cc4c(cc3n12)OCCO4` [Example 192, 1-isopropyl-3-[4-(1-methyl-8,9-dihydro-7,10-dioxa-2,3,5,11b-tetraaza-cyclopenta[a]anthracene-4-ylamino)-butyl]-urea], for which the 50% inhibitory concentration (IC50) in experiment [1] (setting [4]) was at most 50 nM; in experiment [1] (setting [5]), 34 nM; in experiment [2] (setting [6]), 680 nM; in experiment [3] (setting [7]) it was 420 nM.

In the case of `COc1ccc2c(c1)nc(NCCCCNC(=O)OC(C)C)c1nnc(C)n12` [Example 278, [4-(7-methoxy-1-methyl-[1,2,4]triazolo[4,3-a]quinoxaline-4-ylamino)-butyl]-carbamic acid isopropylester], the IC50 in experiment [1] (setting [5]) was 51 nM; in experiment [2] (setting [8]), at most 500 nM; in experiment [2] (setting [6]) it was 180 nM; in experiment [3] (setting [9]), at most 200 nM; in experiment [3] (setting [7]), 160 nM.

On to `COc1ccc2c(c1)nc(NCCCCNC(=O)OCC(C)C)c1nnc(C)n12` [Example 279, [4-(7-methoxy-1-methyl-[1,2,4]triazolo[4,3-a]quinoxaline-4-ylamino)-butyl]-carbamic acid isobutylester], for which the IC50 was at most 50 nM in experiment [1] (setting [4]); 18 nM in experiment [1] (setting [5]); at most 500 nM in experiment [2] (setting [8]); 120 nM in experiment [2] (setting [6]); at most 200 nM in experiment [3] (setting [9]); 140 nM in experiment [3] (setting [7]).

As for `COc1ccc2c(c1)nc(NCCCCNC(=O)CC(C)C)c1nnc(C)n12` [Example 285, N-[4-(7-methoxy-1-methyl-[1,2,4]triazolo[4,3-a]quinoxaline-4-ylamino)-butyl]-3-methyl-butyramide], the half-inhibitory concentration (IC50) was at most 50 nM in experiment [1] (setting [4]); 17 nM in experiment [1] (setting [5]); at most 500 nM in experiment [2] (setting [8]); 91 nM in experiment [2] (setting [6]); at most 200 nM in experiment [3] (setting [9]); 10 nM in experiment [3] (setting [7]).

Consider `COc1cc2nc(NCCCCNC(=O)OC(C)C)c3nnc(C)n3c2cc1C` [Example 467, [4-(7-methoxy-1,8-dimethyl-[1,2,4]triazolo[4,3-a]quinoxaline-4-ylamino)-butyl]-carbamic acid isopropylester], for which the half-maximal inhibitory concentration (IC50) in experiment [1] (setting [4]) was at most 50 nM; in experiment [1] (setting [5]), 23 nM; in experiment [2] (setting [8]), at most 500 nM; in experiment [2] (setting [6]) it was 200 nM; in experiment [3] (setting [9]), at most 200 nM; in experiment [3] (setting [7]), 66 nM.

Regarding `COc1cc2nc(NCCCCNC(=O)OCC(C)C)c3nnc(C)n3c2cc1C` [Example 468, [4-(7-methoxy-1,8-dimethyl-[1,2,4]triazolo[4,3-a]quinoxaline-4-ylamino)-butyl]-carbamic acid isobutylester], the IC50 is at most 50 nM in experiment [1] (setting [4]); 22 nM in experiment [1] (setting [5]); at most 500 nM in experiment [2] (setting [8]); 230 nM in experiment [2] (setting [6]); at most 200 nM in experiment [3] (setting [9]); 73 nM in experiment [3] (setting [7]).

Take `COc1cc2nc(NCCCCNC(=O)CC(C)C)c3nnc(C)n3c2cc1C` [Example 469, N-[4-(7-methoxy-1,8-dimethyl-[1,2,4]triazolo[4,3-a]quinoxaline-4-ylamino)-butyl]-3-methyl-butyramide]: the IC50 in experiment [1] (setting [5]) is 55 nM; in experiment [2] (setting [8]), at most 500 nM; in experiment [2] (setting [6]), 94 nM; in experiment [3] (setting [9]), at most 200 nM; in experiment [3] (setting [7]), 10 nM.

These data come from patent US11028090B2 (Dong Wha Pharm. Co., Ltd., priority 2017, dated 2021).
